According to paper PMC3257218 (Journal of Medicinal Chemistry, 2011):
Residue numbers refer to the chain shown, from its start.

Assays:
[1] = target: T1, human OCT2 (Homo sapiens, UniProt O15244, S270A); assay: ASP+ uptake inhibition in HEK293 cells stably expressing OCT2; details: for inhibition of OCT2 mediated transport: ASP+ 5 µM; for inhibition of renal OCT2 and MATE1 compared to hepatic OCT1: concentration-dependent inhibition, Figure 4C
T1 sequence (O15244 1-555 S270A): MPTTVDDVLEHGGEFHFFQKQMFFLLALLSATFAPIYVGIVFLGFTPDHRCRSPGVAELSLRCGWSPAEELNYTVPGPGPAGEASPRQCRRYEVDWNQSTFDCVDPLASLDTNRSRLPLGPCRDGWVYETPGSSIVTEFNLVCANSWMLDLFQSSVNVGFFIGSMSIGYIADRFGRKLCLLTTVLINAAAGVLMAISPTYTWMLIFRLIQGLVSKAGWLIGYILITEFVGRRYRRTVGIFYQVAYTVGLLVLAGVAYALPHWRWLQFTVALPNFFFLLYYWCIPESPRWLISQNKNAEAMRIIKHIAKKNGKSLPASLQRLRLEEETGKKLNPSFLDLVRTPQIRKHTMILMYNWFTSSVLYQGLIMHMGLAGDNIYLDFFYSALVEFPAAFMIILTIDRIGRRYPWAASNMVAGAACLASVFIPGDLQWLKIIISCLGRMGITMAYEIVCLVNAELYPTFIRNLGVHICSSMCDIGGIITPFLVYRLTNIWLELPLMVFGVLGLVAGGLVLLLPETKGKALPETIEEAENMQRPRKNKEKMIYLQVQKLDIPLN

[2] = target: T2, MATE1 (Homo sapiens, UniProt Q96FL8); assay: ASP+ uptake inhibition in HEK293 cells stably expressing MATE1; type: cell-based; details: for inhibition potency for MATE1 versus other transporters of the panel: concentration-dependent inhibition, Figure 4C
T2 sequence (Q96FL8 1-570): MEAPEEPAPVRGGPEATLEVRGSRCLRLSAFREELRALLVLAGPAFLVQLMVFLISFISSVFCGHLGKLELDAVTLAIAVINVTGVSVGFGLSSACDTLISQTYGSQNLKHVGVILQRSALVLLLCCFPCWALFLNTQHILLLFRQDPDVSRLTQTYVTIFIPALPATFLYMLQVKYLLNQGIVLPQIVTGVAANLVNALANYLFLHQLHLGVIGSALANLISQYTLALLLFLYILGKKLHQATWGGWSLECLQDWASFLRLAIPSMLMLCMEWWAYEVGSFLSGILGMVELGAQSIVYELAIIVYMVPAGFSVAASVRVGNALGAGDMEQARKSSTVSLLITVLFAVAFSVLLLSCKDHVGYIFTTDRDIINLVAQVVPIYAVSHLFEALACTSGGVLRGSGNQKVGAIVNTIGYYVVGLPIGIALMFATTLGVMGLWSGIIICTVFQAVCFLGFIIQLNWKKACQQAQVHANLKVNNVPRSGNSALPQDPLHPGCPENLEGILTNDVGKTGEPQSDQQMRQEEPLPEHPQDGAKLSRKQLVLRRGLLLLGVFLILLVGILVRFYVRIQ

[3] = target: T3, OCT2-A270S (Homo sapiens, UniProt O15244); assay: ASP+ uptake inhibition in HEK293 cells stably expressing OCT2-A270S; type: cell-based; details: for affinity towards OCT2-A270S compared to reference protein: concentration-dependent inhibition, Figure 4C
T3 sequence (O15244 1-555): T1 sequence (O15244 1-555 S270A) with A270S

[4] = collected from the literature; cited from earlier work
[5] = target: MATE2-K (Homo sapiens, UniProt Q86VL8); assay: ASP+ uptake inhibition in HEK293 cells stably expressing MATE2-K; type: cell-based
Sequence of MATE2-K (Q86VL8 1-566 isoform Q86VL8-3): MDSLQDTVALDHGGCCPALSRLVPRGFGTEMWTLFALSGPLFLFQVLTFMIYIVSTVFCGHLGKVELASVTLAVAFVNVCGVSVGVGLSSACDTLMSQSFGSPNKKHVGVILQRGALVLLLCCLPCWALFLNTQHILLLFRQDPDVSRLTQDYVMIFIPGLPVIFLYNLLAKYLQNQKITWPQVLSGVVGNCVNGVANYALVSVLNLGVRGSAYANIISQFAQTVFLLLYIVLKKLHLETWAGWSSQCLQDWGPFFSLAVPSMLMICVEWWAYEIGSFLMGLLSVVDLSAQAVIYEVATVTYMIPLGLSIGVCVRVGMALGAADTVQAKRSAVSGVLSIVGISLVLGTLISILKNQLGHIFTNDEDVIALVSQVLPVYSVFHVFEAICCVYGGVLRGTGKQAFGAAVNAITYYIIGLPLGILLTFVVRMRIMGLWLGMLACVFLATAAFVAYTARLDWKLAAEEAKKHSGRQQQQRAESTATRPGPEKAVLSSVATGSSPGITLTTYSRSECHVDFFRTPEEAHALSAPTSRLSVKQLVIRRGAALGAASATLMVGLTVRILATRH

[6] = target: T4, human OCT1 (Homo sapiens, UniProt O15245); details: screen at 20 µM
T4 sequence (O15245 1-554): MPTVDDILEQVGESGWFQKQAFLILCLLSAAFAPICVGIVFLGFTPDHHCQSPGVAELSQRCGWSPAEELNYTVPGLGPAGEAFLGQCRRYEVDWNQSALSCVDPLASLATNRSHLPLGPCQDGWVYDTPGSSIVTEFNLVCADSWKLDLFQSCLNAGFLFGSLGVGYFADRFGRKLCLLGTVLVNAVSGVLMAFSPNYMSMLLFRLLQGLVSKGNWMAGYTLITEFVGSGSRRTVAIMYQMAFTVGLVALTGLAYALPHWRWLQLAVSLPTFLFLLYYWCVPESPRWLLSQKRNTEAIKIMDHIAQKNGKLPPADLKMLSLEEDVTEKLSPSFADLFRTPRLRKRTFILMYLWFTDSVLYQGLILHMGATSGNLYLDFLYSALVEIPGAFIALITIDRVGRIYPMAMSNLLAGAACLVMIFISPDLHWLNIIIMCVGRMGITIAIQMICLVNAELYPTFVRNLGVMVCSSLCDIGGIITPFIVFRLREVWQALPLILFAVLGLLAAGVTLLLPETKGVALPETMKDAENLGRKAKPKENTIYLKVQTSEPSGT

## CN(C)c1ccc(C=Cc2cc[n+](C)cc2)cc1 [ASP^+, 4-(4-(dimethylamino)styryl)-N-methylpyridinium]
[1]; read-out: Km of ASP+ transport, OCT2 specific uptake, HEK293 cells
  Km: 36.4 ± 6.8 µM

## CN/C(=N\CCSCc1nc[nH]c1C)NC#N [Cimetidine]
[2]
  inhibition potency for MATE1 versus other transporters of the panel: considerably higher inhibition potency for MATE1 than for the other transporters in the panel
[2]; inhibitor 500 µM
  inhibition of transporter activity: complete inhibition of transporter activity
[3]; inhibitor 500 µM
  inhibition of transporter activity: complete inhibition of transporter activity
[1]; inhibitor 20 µM
  inhibition of OCT2 mediated transport: partial
[1]; inhibitor 500 µM
  inhibition of OCT2 mediated transport: complete inhibition of transporter activity

## CC(C)N(CCC(C(N)=O)(c1ccccc1)c1ccccn1)C(C)C (stereo not drawn) [Disopyramide]
[4]
  PB, plasma protein binding: 50%

## CN(C)CCCN1c2ccccc2CCc2ccccc21 [Imipramine]
[4]
  PB, plasma protein binding: 90%
[3]
  affinity towards OCT2-A270S compared to reference protein: lower affinity towards the genetic variant OCT2-A270S than to the reference protein
[1]
  inhibition of renal OCT2 and MATE1 compared to hepatic OCT1: preferential inhibition of the renal transporters OCT2 and MATE1 compared to the hepatic OCT1

## Cc1nccn1CC1CCc2c(c3ccccc3n2C)C1=O (stereo not drawn) [Ondansetron]
[2]
  inhibition potency for MATE1 versus other transporters of the panel: considerably higher inhibition potency for MATE1 than for the other transporters in the panel
[5]; inhibitor 250 µM
  inhibition of transporter activity: complete inhibition of transporter activity
[3]
  affinity towards OCT2-A270S compared to reference protein: lower affinity towards the genetic variant OCT2-A270S than to the reference protein
[1]
  inhibition of renal OCT2 and MATE1 compared to hepatic OCT1: preferential inhibition of the renal transporters OCT2 and MATE1 compared to the hepatic OCT1

## COc1cc(C(=O)NS(=O)(=O)c2ccccc2C)ccc1Cc1cn(C)c2ccc(NC(=O)OC3CCCC3)cc12 [zafirlukast]
[2]; screen at 20 µM
  inhibition in specificity screen (MATE1): showed affinity for all four organic cation transporters
[6]
  inhibition in specificity screen (OCT1): showed affinity for all four organic cation transporters
[5]; screen at 20 µM
  inhibition in specificity screen (MATE2-K): showed affinity for all four organic cation transporters
[1]; screen at 20 µM
  inhibition in specificity screen (OCT2): showed affinity for all four organic cation transporters
